Data published in the CheMixHub ionic liquid set.

Assay: xn = mol fraction of the nth substance listed
Settings: 100 kPa

CCCCCCCC[n+]1ccccc1.[Br-] + CC(C)[C@H](N)C(=O)O + O
Settings | electrical conductivity [S/m]
298.15 K, x2 = 0.001786, x1 = 0.006862 | 1.62
298.15 K, x2 = 0.001787, x1 = 0.006534 | 1.58
298.15 K, x2 = 0.001788, x1 = 0.005828 | 1.49
298.15 K, x2 = 0.001788, x1 = 0.006196 | 1.54
298.15 K, x2 = 0.001789, x1 = 0.005439 | 1.44
298.15 K, x2 = 0.00179, x1 = 0.005003 | 1.38
298.15 K, x2 = 0.001791, x1 = 0.004533 | 1.31
298.15 K, x2 = 0.001792, x1 = 0.004009 | 1.21
298.15 K, x2 = 0.001793, x1 = 0.003435 | 1.08
298.15 K, x2 = 0.001794, x1 = 0.002807 | 0.937
298.15 K, x2 = 0.001795, x1 = 0.002148 | 0.761
298.15 K, x2 = 0.001796, x1 = 0.001254 | 0.492
298.15 K, x2 = 0.001796, x1 = 0.001671 | 0.623
298.15 K, x2 = 0.001797, x1 = 0.0007892 | 0.342
303.15 K, x2 = 0.0008935, x1 = 0.007383 | 1.93
303.15 K, x2 = 0.0008938, x1 = 0.007052 | 1.88
303.15 K, x2 = 0.0008942, x1 = 0.006672 | 1.82
303.15 K, x2 = 0.0008946, x1 = 0.006264 | 1.77
303.15 K, x2 = 0.000895, x1 = 0.005822 | 1.7
303.15 K, x2 = 0.0008954, x1 = 0.005343 | 1.63
303.15 K, x2 = 0.0008959, x1 = 0.004817 | 1.54
303.15 K, x2 = 0.0008964, x1 = 0.004238 | 1.43
303.15 K, x2 = 0.0008969, x1 = 0.003609 | 1.28
303.15 K, x2 = 0.0008976, x1 = 0.002902 | 1.1
303.15 K, x2 = 0.0008982, x1 = 0.00217 | 0.864
303.15 K, x2 = 0.0008986, x1 = 0.001725 | 0.717
303.15 K, x2 = 0.0008991, x1 = 0.001232 | 0.553
303.15 K, x2 = 0.0008995, x1 = 0.000751 | 0.372
303.15 K, x2 = 0.001786, x1 = 0.006852 | 1.81
303.15 K, x2 = 0.001787, x1 = 0.006525 | 1.77
303.15 K, x2 = 0.001788, x1 = 0.00582 | 1.67
303.15 K, x2 = 0.001788, x1 = 0.006185 | 1.72
303.15 K, x2 = 0.001789, x1 = 0.005432 | 1.61
303.15 K, x2 = 0.00179, x1 = 0.004996 | 1.54
303.15 K, x2 = 0.001791, x1 = 0.004527 | 1.46
303.15 K, x2 = 0.001792, x1 = 0.004004 | 1.35
303.15 K, x2 = 0.001793, x1 = 0.003429 | 1.21
303.15 K, x2 = 0.001794, x1 = 0.002804 | 1.04
303.15 K, x2 = 0.001795, x1 = 0.002146 | 0.845
303.15 K, x2 = 0.001796, x1 = 0.00167 | 0.691
303.15 K, x2 = 0.001797, x1 = 0.0007874 | 0.379
303.15 K, x2 = 0.001797, x1 = 0.001252 | 0.546
308.15 K, x2 = 0.0008936, x1 = 0.00737 | 2.19
308.15 K, x2 = 0.0008938, x1 = 0.00704 | 2.13
308.15 K, x2 = 0.0008942, x1 = 0.006659 | 2.06
308.15 K, x2 = 0.0008946, x1 = 0.006254 | 1.99
308.15 K, x2 = 0.000895, x1 = 0.005812 | 1.92
308.15 K, x2 = 0.0008954, x1 = 0.005334 | 1.81
308.15 K, x2 = 0.0008959, x1 = 0.004808 | 1.71
308.15 K, x2 = 0.0008964, x1 = 0.00423 | 1.57
308.15 K, x2 = 0.0008969, x1 = 0.003602 | 1.42
308.15 K, x2 = 0.0008976, x1 = 0.002896 | 1.19
308.15 K, x2 = 0.0008982, x1 = 0.002167 | 0.943
308.15 K, x2 = 0.0008986, x1 = 0.001721 | 0.784
308.15 K, x2 = 0.0008991, x1 = 0.00123 | 0.608
308.15 K, x2 = 0.0008995, x1 = 0.0007492 | 0.414
308.15 K, x2 = 0.001786, x1 = 0.006839 | 2.07
308.15 K, x2 = 0.001787, x1 = 0.006512 | 2.02
308.15 K, x2 = 0.001788, x1 = 0.00581 | 1.87
308.15 K, x2 = 0.001788, x1 = 0.006175 | 1.95
308.15 K, x2 = 0.001789, x1 = 0.005421 | 1.79
308.15 K, x2 = 0.00179, x1 = 0.004987 | 1.71
308.15 K, x2 = 0.001791, x1 = 0.004518 | 1.62
308.15 K, x2 = 0.001792, x1 = 0.003997 | 1.48
308.15 K, x2 = 0.001793, x1 = 0.003424 | 1.34
308.15 K, x2 = 0.001794, x1 = 0.002798 | 1.14
308.15 K, x2 = 0.001795, x1 = 0.002143 | 0.914
308.15 K, x2 = 0.001796, x1 = 0.001666 | 0.743
308.15 K, x2 = 0.001797, x1 = 0.0007874 | 0.427
308.15 K, x2 = 0.001797, x1 = 0.001249 | 0.603
